Reference: patent publication US6689773B2, “Uracil substituted phenyl sulfamoyl carboxamides” (BASF Aktiengesellschaft, priority 2000, dated 2004)

Key:
[1] = test system: potato plants; assay: Field trials of preharvest desiccant activity (Example 151); assay type: in vivo, Potatoes; conditions: EC formulation 120 grams a.i./liter applied to foliage a few weeks before harvest
Method: Field evaluations of preharvest desiccant activity were performed at several different locations using compound Ia.86. In each experiment treatments was replicated three times in a randomized complete block experimental design. Potatoes were grown using good agronomic practices of each area. Treatments were applied a few weeks before planned potato harvest. The test compound was formulated as an emulsifiable concentrate (EC) formulation with 120 grams a.i./liter. The formulation was diluted with water, spray adjuvants were added, and the treatment solution was applied to the foliage of potatoes in from 187 to 600 l/ha of total spray volume. Unless indicated otherwise, the treatments also contained […] of methylated seed oil adjuvant (Hasten or SUN-IT II. In the case of split applications, the second application was made about 1 week after the initial application. At various intervals after treatment, desiccation of stems and leaves was evaluated separately, on a visual % desiccation scale. In each test the test compound was compared to appropriate commercial standards at the normal rate for each standard for the area.

[2] = test system: Amaranthus retroflexus (AMARE), Redroot pigweed; assay: Greenhouse post-emergence herbicidal action (Example 149); assay type: in vivo; conditions: 15.6 or 7.8 g/ha of a.i.
Method: (§1) The culture containers used were plastic flowerpots containing loamy sand with approximately 3.0% of humus as substrate. The seeds of the test plants were sown separately for each species.
(§2) For the post-emergence treatment, the test plants were grown to a plant height of from 3 to 15 cm, depending on the plant habit, and only then treated with the active ingredients which had been suspended or emulsified in water. To this end, the test plants were either sown directly and grown in the same containers, or they were first grown separately as seedlings and transplanted into the test containers a few days prior to treatment. The rate of application for the post-emergence treatment was 15.6 or 7.8 g/ha active ingredient.
(§3) Depending on the species, the plants were kept at from 10-25° C. and 20-35° C., respectively. The test period extended over 2 to 4 weeks. During this time, the plants were tended, and their response to the individual treatments was evaluated.
(§4) Evaluation was carried out using a scale of from 0 to 100. 100 means no emergence of the plants, or complete destruction of at least the aerial parts, and 0 means no damage or normal course of growth.
(§5) The plants used in the greenhouse experiments belonged to the following species: […]

[3] = test system: Pharbitis purpurea (PHBPU), common or tall morningglory; assay: as above; assay type: in vivo; conditions: 15.6 or 7.8 g/ha of a.i.
Method: as §1, §2, §3, §4, §5

[4] = test system: Polygonum persicaria (POLPE), redshank; ladysthumb; assay: as above; assay type: in vivo; conditions: 15.6 or 7.8 g/ha of a.i.
Method: as §1, §2, §3, §4, §5

[5] = test system: ABUTH, Velvetleaf, Abutilon theophrasti, Medic.; assay: Postemergence herbicidal evaluation (Example 147); assay type: in vivo; conditions: rating scale 0-9, two to three weeks after treatment
Method in brief: (§6)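 Greenhouse postemergence test: two-week seedlings sprayed at about 0.016 to 0.032 kg/ha active. Scored visually, 0-9 scale, after two to three weeks.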

[6] = test system: ALOMY, Blackgrass, Alopecurus myosuroides; assay: Postemergence herbicidal evaluation (Example 147); assay type: in vivo; conditions: rating scale 0-9, two to three weeks after treatment
Method in brief: as §6

[7] = test system: AMBEL, Ragweed, Common, Ambrosia artemiisifolia, L.; assay: Postemergence herbicidal evaluation (Example 147); assay type: in vivo; conditions: rating scale 0-9, two to three weeks after treatment
Method in brief: as §6

[8] = test system: CHEAL, Lambsquarters, Chenopodium album, L. Common; assay: Postemergence herbicidal evaluation (Example 147); assay type: in vivo; conditions: rating scale 0-9, two to three weeks after treatment
Method in brief: as §6

[9] = test system: DIGSA, Crabgrass, (Hairy) L, Digitaria sanguinalis, (L)Scop; assay: Postemergence herbicidal evaluation (Example 147); assay type: in vivo; conditions: rating scale 0-9, two to three weeks after treatment
Method in brief: as §6

[10] = test system: ECHCG, Barnyardgrass, Echinochloa crusgalli, (L.)Beau; assay: Postemergence herbicidal evaluation (Example 147); assay type: in vivo; conditions: rating scale 0-9, two to three weeks after treatment
Method in brief: as §6

[11] = test system: GLXMA, Soybean, Glycine max, (L.) Merr.; assay: Postemergence herbicidal evaluation (Example 147); assay type: in vivo; conditions: rating scale 0-9, two to three weeks after treatment
Method in brief: as §6

[12] = test system: IPOHE, Morningglory, Ivyleaf, Ipomoea hederacea, (L)Jacq.; assay: Postemergence herbicidal evaluation (Example 147); assay type: in vivo; conditions: rating scale 0-9, two to three weeks after treatment
Method in brief: as §6

[13] = test system: SETVI, Green foxtail, Setaria viridis, (L.)Beau; assay: Postemergence herbicidal evaluation (Example 147); assay type: in vivo; conditions: rating scale 0-9, two to three weeks after treatment
Method in brief: as §6

[14] = test system: TRZAW, Winter wheat, Tritium Aestivum, L. (Winter); assay: Postemergence herbicidal evaluation (Example 147); assay type: in vivo; conditions: rating scale 0-9, two to three weeks after treatment
Method in brief: as §6

[15] = test system: XANST, Cocklebur, Xanthium strumariam; assay: Postemergence herbicidal evaluation (Example 147); assay type: in vivo; conditions: rating scale 0-9, two to three weeks after treatment
Method in brief: as §6

[16] = test system: ZEAMX, Field corn, Zea mays L.; assay: Postemergence herbicidal evaluation (Example 147); assay type: in vivo; conditions: rating scale 0-9, two to three weeks after treatment
Method in brief: as §6

[17] = test system: ABUTH, Velvetleaf, Abutilon theophrasti, Medic.; assay: Preemergence herbicidal evaluation (Example 148); assay type: in vivo; conditions: rating scale 0-9, two to four weeks after treatment
Method in brief: (§7)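 Visual rating vs. control (stand, vigor, malformation, size, chlorosis, overall appearance) at 2–4 wk post-treatment. Soil surface sprayed right after sowing; ~0.125–0.250 kg/ha in aqueous acetone. Repeat tests averaged.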

[18] = test system: ALOMY, Blackgrass, Alopecurus myosuroides; assay: Preemergence herbicidal evaluation (Example 148); assay type: in vivo; conditions: rating scale 0-9, two to four weeks after treatment
Method in brief: as §7

[19] = test system: AMBEL, Ragweed, Common, Ambrosia artemiisifolia, L.; assay: Preemergence herbicidal evaluation (Example 148); assay type: in vivo; conditions: rating scale 0-9, two to four weeks after treatment
Method in brief: as §7

[20] = test system: CHEAL, Lambsquarters, Chenopodium album, L. Common; assay: Preemergence herbicidal evaluation (Example 148); assay type: in vivo; conditions: rating scale 0-9, two to four weeks after treatment
Method in brief: as §7

[21] = test system: DIGSA, Crabgrass, (Hairy) L, Digitaria sanguinalis, (L)Scop; assay: Preemergence herbicidal evaluation (Example 148); assay type: in vivo; conditions: rating scale 0-9, two to four weeks after treatment
Method in brief: as §7

[22] = test system: ECHCG, Barnyardgrass, Echinochloa crusgalli, (L.)Beau; assay: Preemergence herbicidal evaluation (Example 148); assay type: in vivo; conditions: rating scale 0-9, two to four weeks after treatment
Method in brief: as §7

[23] = test system: GLXMA, Soybean, Glycine max, (L.) Merr.; assay: Preemergence herbicidal evaluation (Example 148); assay type: in vivo; conditions: rating scale 0-9, two to four weeks after treatment
Method in brief: as §7

[24] = test system: IPOHE, Morningglory, Ivyleaf, Ipomoea hederacea, (L)Jacq.; assay: Preemergence herbicidal evaluation (Example 148); assay type: in vivo; conditions: rating scale 0-9, two to four weeks after treatment
Method in brief: as §7

[25] = test system: SETVI, Green foxtail, Setaria viridis, (L.)Beau; assay: Preemergence herbicidal evaluation (Example 148); assay type: in vivo; conditions: rating scale 0-9, two to four weeks after treatment
Method in brief: as §7

[26] = test system: TRZAW, Winter wheat, Tritium Aestivum, L. (Winter); assay: Preemergence herbicidal evaluation (Example 148); assay type: in vivo; conditions: rating scale 0-9, two to four weeks after treatment
Method in brief: as §7

[27] = test system: XANST, Cocklebur, Xanthium strumariam; assay: Preemergence herbicidal evaluation (Example 148); assay type: in vivo; conditions: rating scale 0-9, two to four weeks after treatment
Method in brief: as §7

[28] = test system: ZEAMX, Field corn, Zea mays L.; assay: Preemergence herbicidal evaluation (Example 148); assay type: in vivo; conditions: rating scale 0-9, two to four weeks after treatment
Method in brief: as §7

## CC(C)N(C)S(=O)(=O)NC(=O)c1cc(-n2c(=O)cc(C(F)(F)F)n(C)c2=O)c(F)cc1Cl [Ia.86]
[1]
  desiccation of the leaves and stems of potato plants: very effective

## CC(C)N(C)S(=O)(=O)NC(=O)c1cc(-n2c(=O)n(C)c(=S)n(C)c2=O)c(F)cc1Cl [Ij.86, N′-[2-Chloro-5-(3,5-dimethyl-2,6-dioxo-4-thioxo-1,3,5-triazinan-1-yl)-4-fluorobenzoyl]-N-isopropyl-N-methylsulfamide]
[2]
  herbicidal action: very good herbicial action
[3]
  herbicidal action: very good herbicial action
[4]
  herbicidal action: very good herbicial action

## CC(C)N(C)S(=O)(=O)NC(=O)c1cc(-c2nn(C)c(OC(F)F)c2Cl)c(F)cc1Cl [Ip.86, 4-Chloro-3-[4-chloro-2-fluoro-5-(N-methyl-N-isopropyl)-sulfamoylcarboxamidophenyl]-5-difluoromethoxy-1-methyl-1H-pyrazole]
[2]
  herbicidal action: very good herbicial action
[3]
  herbicidal action: very good herbicial action
[4]
  herbicidal action: very good herbicial action

## CC(C)N(C)S(=O)(=O)NC(=O)c1cc(-c2ncc(C(F)(F)F)cc2Cl)c(F)cc1Cl [Iy.86, N′-[[2-Chloro-5-[3-chloro-5-(trifluoromethyl)-2-pyridinyl]-4-fluorobenzoyl]]-N-isopropyl-N-methylsulfamide]
[2]
  herbicidal action: very good herbicial action
[3]
  herbicidal action: very good herbicial action
[4]
  herbicidal action: very good herbicial action

## CCOC(=O)CN(C)S(N)(=O)=O [compound 53]
[5]; rate 0.016 kg/ha
  Postemergence herbicidal rating ABUTH: 9.0
[5]; rate 0.032 kg/ha
  Postemergence herbicidal rating ABUTH: 9.0
[6]; rate 0.016 kg/ha
  Postemergence herbicidal rating ALMOY: 2.3
[6]; rate 0.032 kg/ha
  Postemergence herbicidal rating ALMOY: 3.0
[7]; rate 0.016 kg/ha
  Postemergence herbicidal rating AMBEL: 8.9
[7]; rate 0.032 kg/ha
  Postemergence herbicidal rating AMBEL: 9.0
[8]; rate 0.016 kg/ha
  Postemergence herbicidal rating CHEAL: 8.1
[8]; rate 0.032 kg/ha
  Postemergence herbicidal rating CHEAL: 8.4
[9]; rate 0.016 kg/ha
  Postemergence herbicidal rating DIGSA: 5.3
[9]; rate 0.032 kg/ha
  Postemergence herbicidal rating DIGSA: 6.6
[10]; rate 0.016 kg/ha
  Postemergence herbicidal rating ECHCG: 8.1
[10]; rate 0.032 kg/ha
  Postemergence herbicidal rating ECHCG: 8.8
[11]; rate 0.016 kg/ha
  Postemergence herbicidal rating GLXMA: 8.1
[11]; rate 0.032 kg/ha
  Postemergence herbicidal rating GLXMA: 8.4
[12]; rate 0.016 kg/ha
  Postemergence herbicidal rating IPOHE: 8.8
[12]; rate 0.032 kg/ha
  Postemergence herbicidal rating IPOHE: 9.0
[13]; rate 0.016 kg/ha
  Postemergence herbicidal rating SETVI: 6.4
[13]; rate 0.032 kg/ha
  Postemergence herbicidal rating SETVI: 7.5
[14]; rate 0.016 kg/ha
  Postemergence herbicidal rating TRZAW: 5.6
[14]; rate 0.032 kg/ha
  Postemergence herbicidal rating TRZAW: 6.2
[15]; rate 0.016 kg/ha
  Postemergence herbicidal rating XANST: 9.0
[15]; rate 0.032 kg/ha
  Postemergence herbicidal rating XANST: 9.0
[16]; rate 0.016 kg/ha
  Postemergence herbicidal rating ZEAMX: 7.2
[16]; rate 0.032 kg/ha
  Postemergence herbicidal rating ZEAMX: 7.6
[17]; rate 0.125 kg/ha
  Preemergence herbicidal rating ABUTH: 9.0
[17]; rate 0.25 kg/ha
  Preemergence herbicidal rating ABUTH: 9.0
[18]; rate 0.125 kg/ha
  Preemergence herbicidal rating ALMOY: 1.3
[18]; rate 0.25 kg/ha
  Preemergence herbicidal rating ALMOY: 2.7
[19]; rate 0.125 kg/ha
  Preemergence herbicidal rating AMBEL: 8.9
[19]; rate 0.25 kg/ha
  Preemergence herbicidal rating AMBEL: 9.0
[20]; rate 0.125 kg/ha
  Preemergence herbicidal rating CHEAL: 9.0
[20]; rate 0.25 kg/ha
  Preemergence herbicidal rating CHEAL: 9.0
[21]; rate 0.125 kg/ha
  Preemergence herbicidal rating DIGSA: 8.1
[21]; rate 0.25 kg/ha
  Preemergence herbicidal rating DIGSA: 8.8
[22]; rate 0.125 kg/ha
  Preemergence herbicidal rating ECHCG: 7.5
[22]; rate 0.25 kg/ha
  Preemergence herbicidal rating ECHCG: 8.4
[23]; rate 0.125 kg/ha
  Preemergence herbicidal rating GLXMA: 8.1
[23]; rate 0.25 kg/ha
  Preemergence herbicidal rating GLXMA: 8.8
[24]; rate 0.125 kg/ha
  Preemergence herbicidal rating IPOHE: 9.0
[24]; rate 0.25 kg/ha
  Preemergence herbicidal rating IPOHE: 9.0
[25]; rate 0.125 kg/ha
  Preemergence herbicidal rating SETVI: 5.7
[25]; rate 0.25 kg/ha
  Preemergence herbicidal rating SETVI: 7.3
[26]; rate 0.125 kg/ha
  Preemergence herbicidal rating TRZAW: 1.3
[26]; rate 0.25 kg/ha
  Preemergence herbicidal rating TRZAW: 2.0
[27]; rate 0.125 kg/ha
  Preemergence herbicidal rating XANST: 9.0
[27]; rate 0.25 kg/ha
  Preemergence herbicidal rating XANST: 9.0
[28]; rate 0.125 kg/ha
  Preemergence herbicidal rating ZEAMX: 2.3
[28]; rate 0.25 kg/ha
  Preemergence herbicidal rating ZEAMX: 4.3
